Source: patent US20260199267A1, “METHOD FOR PREPARING ENDO-C[…] FROM VEGETABLE OILS USING LIPASE AND USE THEREOF” (KOREA RESEARCH INSTITUTE OF BIOSCIENCE AND BIOTECHNOLOGY, priority 2022, published 2026)

How the values were obtained:
Assay type in all cases: cell-based
[1] = test system: IL-1β production in LPS-treated RAW 264.7 cells; experiment: pro-inflammatory cytokine production, ELISA; conditions: reference inhibitor, concentration not given, 24 h
Procedure: (§1) RAW 264.7 cells were dispensed into a 24-well plate at a density of […], incubated for 24 hours, and then treated with a non-cytotoxic concentration of the sample and LPS ([…]), followed by an additional 24-hour incubation. The cell culture was centrifuged at 5,000 rpm for 5 minutes, and the supernatant was collected. The levels of […] (FIG. 88), IL-6 (FIG. 89), and TNF-α (FIG. 90) were then measured using an ELISA kit according to the manufacturer's instructions.

[2] = test system: IL-6 production in LPS-treated RAW 264.7 cells; experiment: pro-inflammatory cytokine production, ELISA; conditions: reference inhibitor, concentration not given, 24 h
Procedure: as §1

[3] = test system: TNF-α production in LPS-treated RAW 264.7 cells; experiment: pro-inflammatory cytokine production, ELISA; conditions: reference inhibitor, concentration not given, 24 h
Procedure: as §1

[4] = target: cannabinoid receptor 2 (CB2) (Homo sapiens, UniProt P34972); experiment: agonist effect on cannabinoid receptor, cAMP measurement; conditions: CB2, concentration-response graph
cannabinoid receptor 2 (CB2), sequence (P34972 whole entry): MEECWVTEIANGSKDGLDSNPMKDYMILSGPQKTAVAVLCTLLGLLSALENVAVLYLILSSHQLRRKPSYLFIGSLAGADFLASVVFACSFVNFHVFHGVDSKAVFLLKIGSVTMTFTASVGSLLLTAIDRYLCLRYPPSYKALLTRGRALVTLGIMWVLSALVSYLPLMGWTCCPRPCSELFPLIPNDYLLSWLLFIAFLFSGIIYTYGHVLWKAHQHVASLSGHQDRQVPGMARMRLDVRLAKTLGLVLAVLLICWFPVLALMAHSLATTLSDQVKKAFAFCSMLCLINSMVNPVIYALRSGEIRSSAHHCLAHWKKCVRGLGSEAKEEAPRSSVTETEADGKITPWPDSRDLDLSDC
Procedure: The efficacy was evaluated by measuring the amount of cyclic adenosine monophosphate (cAMP) generated from adenosine triphosphate (ATP) through the activation of adenylyl cyclase, which is triggered by G-protein alpha (G-protein a) as part of the stepwise signal transduction pathway initiated upon the binding of the test sample to the receptor. The efficacy was evaluated by measuring the amount of cyclic adenosine monophosphate (cAMP) generated from adenosine triphosphate (ATP) through G-protein alpha (G-protein a), which is activated by the binding of the sample to the receptor as part of the stepwise signal transduction pathway, and adenylyl cyclase, which is activated by G-protein a.

SMILES	decrease of IL-1β production [1]	decrease of IL-6 production [2]	decrease of TNF-α production [3]	Graph Min [4]
N.S=C(S)N1CCCC1 [APDTC]	45.39%	47.12%	20.28%	–
CCCCCCC(C)(C)c1ccc([C@@H]2C[C@H](O)CC[C@H]2CCCO)c(O)c1 [CP55940]	–	–	–	5.4524
